These results are taken from article doi:10.1101/2021.06.14.448287v1, “Plasmodium falciparum protein Pfs16 is a target for transmission-blocking antimalarial drug development” (biorxiv, 2021).

In the first experiment the target is T1, Pfs16 (Plasmodium falciparum, UniProt Q6ZMA7).
T1 construct: native full-length protein in stage V gametocytes or their Triton X-100 lysate; 157 residues, 16 kDa, two transmembrane domains
T1 sequence (Q6ZMA7 26-157): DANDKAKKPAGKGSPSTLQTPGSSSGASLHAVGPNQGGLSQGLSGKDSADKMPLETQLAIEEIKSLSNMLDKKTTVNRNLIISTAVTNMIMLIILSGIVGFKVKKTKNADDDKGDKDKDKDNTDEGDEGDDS
The experiment in a line: CETSA melt curve with immunoblot. The settings on record: activated stage V gametocyte lysate, 100 uM compound, 1% Triton X-100, pH 7.5; also isothermal dose response at 78.4 °C. In kind it is biochemical.
With `O=S(=O)(NCC1(O)CCOc2ccccc21)c1ccc(Br)s1` (stereo not shown) [DDD01035881], the Tm shift entry is “DDD01035881 treatment clearly resulted in a positive shift in the Pfs16 melting curve”.

A further experiment deals with T2, P. falciparum NF54 stage V male gametocytes.
T2 construct: NF54
The experiment in a line: microbe, parasite or virus in culture. Also noted: male gamete formation assay (DGFA format), inhibition of exflagellation of stage V gametocytes. The settings on record: Plasmodium falciparum, NF54, male gamete formation. The source says: Yahiya et al. 2021 Supplement Page 26 of 27 345 IC50 determination by male gamete formation assay 346 The male gamete formation assay (MGFA) was adapted from the previously described dual gamete formation assay (DGFA)3 347 to identify male gamete targeted activity. Briefly, compounds 348 were dispensed into 384-well plates using the HP D300 Digital Dispenser in serial dilutions. Single 349 point controls, a DMSO negative control (0.25% final assay volume) and 20 µM DDD01028076 350 positive control, were included across the plate. Maintaining RT, 10 µl ookinete medium was 351 dispensed into each well, followed by addition of 50 µl of stage V NF54 gametocyte culture (day 14 352 post-induction and onwards). […] Plates were then immediately incubated at 4°C 354 for 4 minutes, followed by 28°C for 5 minutes. Table 1. DDD01035881 and derivatives Activity of DDD01035881 and structural analogues as determined in a structure activity relationship study. IC50s depicted represent the inhibition of male gamete viability as determined by the male gamete formation format of the DGFA. Values are expressed as an average ± SEM of 3-8 biological replicates, ≥ 2 technical replicates.[15]
`C#Cc1cccc(S(=O)(=O)NCC2(O)CCOc3ccccc32)c1` (stereo not shown) [compound 4, 4]: the IC50 (as a rule, the concentration that inhibits the measured activity by half) was more than 1000 nM.

With `C#Cc1ccc2c(c1)C(O)(CN(CCC1(C)N=N1)S(=O)(=O)c1cccc(Br)c1)CCO2` (stereo not shown) [compound 5, 5], the IC50 is more than 25000 nM.

Consider `CCCCn1cc(-c2ccc3c(c2)C(O)(CNS(=O)(=O)c2cccc(Br)c2)CCO3)nn1` (stereo not shown) [compound 9, 9], for which the half-inhibitory concentration (IC50) is more than 25000 nM.

In the case of `C=CCOc1ccc2c(c1)C(O)(CNS(=O)(=O)c1cccc(Br)c1)CCO2` (stereo not shown) [compound 7, 7], the IC50 was more than 25000 nM.

For the compound `C#Cc1ccc2c(c1)C(O)(CNS(=O)(=O)c1cccc(Br)c1)CCO2` (stereo not shown) [compound 3, 3], the IC50 came to 370 ± 79 nM.

`O=S(=O)(NCC1(O)CCOc2ccc(O)cc21)c1cccc(Br)c1` (stereo not shown) [compound 6, 6] registered an IC50 of more than 11000 nM.

The compound `O=S(=O)(NCC1(O)CCOc2ccc(Br)cc21)c1cccc(Br)c1` (stereo not shown) [compound 1, parent molecule 1] registered an IC50 of 785 ± 48 nM.

Regarding `O=S(=O)(NCC1(O)CCOc2ccccc21)c1ccc(Br)s1` (stereo not shown) [DDD01035881], half-maximal inhibition (IC50) required 292 ± 76 nM.

With `C#Cc1ccc2c(c1)C(O)(CNS(=O)(=O)c1cccc(N=[N+]=[N-])c1)CCO2` (stereo not shown) [compound 2, probe 2], the concentration for half-maximal inhibition (IC50) worked out at 3980 ± 211 nM.

`O=S(=O)(NCC1(O)CCOc2ccccc21)c1ccccc1Br` (stereo not shown) [DDD01028076] showed an IC50 of 367 ± 60 nM.

Compound `CN(CC1(O)CCOc2ccccc21)S(=O)(=O)c1cccc(Br)c1` (stereo not shown) [compound 10, 10] had a half-inhibitory concentration (IC50) of more than 10000 nM.

The target in a further experiment is T1, Pfs16. In words: photoaffinity labelling, click capture, pulldown, TMT nLC-MS/MS, in-gel fluorescence and immunoblot. In kind it is cell-based. The following applies: live stage V gametocytes, 2.5-10 uM, 254 nm UV; covalent after irradiation.
On to `C#Cc1ccc2c(c1)C(O)(CNS(=O)(=O)c1cccc(N=[N+]=[N-])c1)CCO2` (stereo not shown) [compound 2, probe 2], for which the “photoaffinity labelling, click capture, pulldown, TMT nLC-MS/MS, in-gel fluoresc” value was “a dose-dependent pulldown of Pfs16 was clearly observed”.
